Literature values in US20110212474A1, “ABNORMAL ALTERATIONS OF PKC ISOZYMES PROCESSING IN ALZHEIMER'S DISEASE PERIPHERAL CELLS” (BLANCHETTE ROCKEFELLER NEUROSCIENCES INSTITUTE, priority 2009, published 2011).

What was measured:
[1] = system: Aβ (1-42); details: transgenic mice with human AD genes
[2] = system: PKC; details: postischemic/hypoxic treatment
[3] = system: PKC-α; details: non-AD (AC) fibroblasts, nanomolar concentrations of Aβ (1-40)
[4] = system: PKC-γ; details: AD fibroblasts, Aβ (1-40)

Row | Compound | effect on Aβ (1-42) levels in the brains [1] | effect on ischemia-induced deficits in synaptogenesis, neurotrophic activity, and spatial learning and memory [2] | decrease in PKC-α immunoreactivity [3] [%] | reduction of PKC-γ immunoreactivity [4] [%]
1 | CCC/C=C/C=C/C(=O)O[C@H]1/C(=C/C(=O)OC)C[C@H]2C[C@H]([C@@H](C)O)OC(=O)C[C@H](O)C[C@@H]3C[C@H](OC(C)=O)C(C)(C)[C@](O)(C[C@@H]4C/C(=C/C(=O)OC)C[C@H](/C=C/C(C)(C)[C@]1(O)O2)O4)O3 [bryostatin-1] | reduce Aβ (1-42) levels | effectively rescued ischemia-induced deficits |  | 
2 | Aβ (1-40): Aβ peptide, "short form," 40 amino acids in length, from Amyloid Precursor Protein |  |  | 75 | 70
